Assay results as given in patent publication US8324390B2, “Tetrazole-substituted anthranilamides as pesticides” (Bayer CropScience AG, priority 2008, dated 2012).
Like-named read-outs stand apart in the source and are kept apart here.

Tests used:
[1] = system: larvae of the mustard beetle (Phaedon cochleariae); test: Phaedon test (PHAECO spray treatment); conditions: Phaedon cochleariae, in Brassica rapa, foliar, read-out: effect in % (beetle larvae killed)
[2] = system: caterpillars of the armyworm (Spodoptera frugiperda); test: Spodoptera frugiperda test (SPODFR spray treatment); format: in vivo; conditions: Spodoptera frugiperda, foliar, read-out: effect in % (caterpillars killed)
Source text: Solvent: 78.0 parts by weight of acetone

[3] = log P determination by HPLC (EEC Directive 79/831 Annex V.A8); format: physicochemical
Experimental: The measurements were carried out using an Agilent 1100 LC system with a 50*4.6 Zorbax Eclipse C18 1.8 μm column (oven temperature 55° C., flow rate 2.0 ml/min).
The following mobile phases were used:
Mobile phase A: acetonitrile+1000 μl of formic acid/l
Mobile phase B: Millipore water+900 μl of formic acid/l

[4] = application rate 100 g/ha, maize leaf discs
[5] = reversed-phase HPLC, Zorbax Eclipse C18 column, determined by HPLC according to EEC Directive 79/831 Annex V.A8, read-out: log P
[6] = reversed-phase HPLC, Zorbax Eclipse C18 column, by HPLC according to EEC Directive 79/831 Annex V.A8, read-out: log P

Compound | pest or weed control at 100 g/ha [1] [%] | pest or weed control at 100 g/ha ([2]; in Zea mays) [%] | chromatographic logP ([3]; log P) | pest or weed control at 100 g/ha [2, 4] [%] | chromatographic logP [3, 5] | chromatographic logP [3, 6] | chromatographic logP ([3]; by HPLC according to EEC Directive 79/831 Annex V.A8, read-out: log P)
CC(C)(C)NC(=O)c1cc(Cl)cc(Cl)c1NC(=O)c1cc(Cn2nnnc2C(F)(F)C(F)(F)F)nn1-c1ncccc1Cl [Example 206] | ≥ 80 | ≥ 80 | 3.88 |  |  |  | 
Cc1cc(Cl)cc(C(=O)NC(C)(C)C)c1NC(=O)c1cc(Cn2nnc(C(F)(F)C(F)(F)F)n2)nn1-c1ccccc1Cl [Example 535] | ≥ 80 |  |  | ≥ 80 | 4.73 |  | 
CNC(=O)c1cc(C#N)cc(C)c1NC(=O)c1cc(Cn2nnc(C(F)(F)F)n2)nn1-c1ccc(OC(F)(F)F)cc1Cl [Example 531] | ≥ 80 |  |  | ≥ 80 | 3.82 |  | 
Cc1cc(C#N)cc(C(=O)NCC(F)(F)F)c1NC(=O)c1cc(Cn2nnc(C(F)(F)F)n2)nn1-c1ccccc1Cl [Example 537] | ≥ 80 |  |  | ≥ 80 | 3.48 |  | 
Cc1cc(Cl)cc(C(=O)NC(C)(C)C)c1NC(=O)c1cc(C(C)n2nnc(C(F)(F)F)n2)nn1-c1ncccc1Cl (stereo not drawn) [Example 541] | ≥ 80 | ≥ 80 | 4.1 |  |  |  | 
Cc1cc(Cl)cc(C(=O)NC2CCC2)c1NC(=O)c1cc(Cn2nnc(C(F)(F)C(F)(F)F)n2)nn1-c1ncccc1Cl [Example 132] | ≥ 80 | ≥ 80 | 4.03 |  |  |  | 
Cc1cc(I)cc(C(=O)NC(C)C2CC2)c1NC(=O)c1cc(Cn2nnc(C(F)(C(F)(F)F)C(F)(F)F)n2)nn1-c1ncccc1Cl (stereo not drawn) [Example 378] | ≥ 80 |  |  | ≥ 80 |  | 4.74 | 
Cc1cc(I)cc(C(=O)NC(C)(C)C)c1NC(=O)c1cc(Cn2nnnc2C(F)(F)F)nn1-c1ncccc1Br [Example 496] | ≥ 80 |  |  | ≥ 80 | 3.73 |  | 
Cc1cc(I)cc(C(=O)NC(C)C2CC2)c1NC(=O)c1cc(Cn2nnc(C(F)(F)C(F)(F)F)n2)nn1-c1ncccc1Cl (stereo not drawn) [Example 141] | ≥ 80 | ≥ 80 | 4.42 |  |  |  | 
Cc1cc(C#N)cc(C(=O)NC2CC2)c1NC(=O)c1cc(Cn2nnc(C(F)(F)F)n2)nn1-c1ncccc1C(F)(F)F [Example 233] | ≥ 80 |  |  | ≥ 80 |  | 3.07 | 
Cc1cc(I)cc(C(=O)NC(C)(C)C)c1NC(=O)c1cc(Cn2nnc(C(F)(F)C(F)(F)C(F)(F)F)n2)nn1-c1ncccc1Cl [Example 121] | ≥ 80 | ≥ 80 |  |  |  |  | 4.86
Cc1cc(I)cc(C(N)=O)c1NC(=O)c1cc(Cn2nnc(C(F)(C(F)(F)F)C(F)(F)F)n2)nn1-c1ncccc1Cl [Example 382] | ≥ 80 | ≥ 80 | 3.67 |  |  |  | 
COCCNC(=O)c1cc(C#N)cc(C)c1NC(=O)c1cc(Cn2nnc(C(F)(C(F)(F)F)C(F)(F)F)n2)nn1-c1ncccc1Cl [Example 395] | ≥ 80 |  |  | ≥ 80 |  | 3.48 | 
Cc1cc(C)c(NC(=O)c2cc(Cn3nnc(C(F)(F)F)n3)nn2-c2ncccc2Cl)c(C(=O)NCC#N)c1 [Example 85] | ≥ 80 | ≥ 80 | 2.83 |  |  |  | 
Cc1cc(C#N)cc(C(=O)NCC2CC2(Cl)Cl)c1NC(=O)c1cc(Cn2nnc(C(F)(F)F)n2)nn1-c1ncccc1Cl (stereo not drawn) [Example 88] | ≥ 80 | ≥ 80 | 3.5 |  |  |  | 
CNC(=O)c1cc(Cl)cc(Cl)c1NC(=O)c1cc(Cn2nnc(C(F)(C(F)(F)F)C(F)(F)F)n2)nn1-c1ncccc1Cl [Example 386] | ≥ 80 | ≥ 80 | 3.65 |  |  |  | 
CNC(=O)c1cc(C#N)cc(C)c1NC(=O)c1cc(Cn2nnnc2C(F)(F)F)nn1-c1ccccc1C(F)(F)F [Example 490] | ≥ 80 |  |  | ≥ 80 | 2.91 |  | 
Cc1cc(F)cc(C(=O)NCC2CC2)c1NC(=O)c1cc(Cn2nnc(C(F)(F)F)n2)nn1-c1ncccc1Cl [Example 48] | ≥ 80 | ≥ 80 | 3.18 |  |  |  | 
Cc1cc(C#N)cc(C(=O)NC(C)(C)C)c1NC(=O)c1cc(Cn2nnc(C(F)(F)F)n2)nn1-c1ccccc1Br [Example 347] | ≥ 80 |  |  | ≥ 80 |  | 3.95 | 
CNC(=O)c1cc(Cl)cc(Cl)c1NC(=O)c1cc(Cn2nnnc2C(F)(F)F)nn1-c1ncccc1Cl [Example 184] | ≥ 80 | ≥ 80 | 2.63 |  |  |  | 

Compound | pest or weed control at 100 g/ha [1] [%] | pest or weed control at 100 g/ha ([2]; in Zea mays) [%] | chromatographic logP ([3]; log P) | pest or weed control at 100 g/ha [2, 4] [%] | chromatographic logP [3, 5] | chromatographic logP [3, 6] | chromatographic logP ([3]; by HPLC according to EEC Directive 79/831 Annex V.A8, read-out: log P)
Cc1cc(Br)cc(C(=O)NC(C)C)c1NC(=O)c1cc(Cn2nnc(C(F)(F)C(F)(F)F)n2)nn1-c1ncccc1Cl [Example 146] | ≥ 80 | ≥ 80 | 3.95 |  |  |  | 
Cc1cc(I)cc(C(=O)NC(C)C)c1NC(=O)c1cc(Cn2nnc(C(F)F)n2)nn1-c1ncccc1Cl [Example 277] | ≥ 80 | ≥ 80 | 3.2 |  |  |  | 
Cc1cc(I)cc(C(=O)NC(C)C)c1NC(=O)c1cc(Cn2nnc(C(F)(F)F)n2)nn1-c1ncccc1Cl [Example 71] | ≥ 80 | ≥ 80 | 3.73 |  |  |  | 
C=CCNC(=O)c1cc(Cl)cc(C)c1NC(=O)c1cc(Cn2nnc(C(F)(F)F)n2)nn1-c1ncccc1Cl [Example 319] | ≥ 80 | ≥ 80 | 3.34 |  |  |  | 
CNC(=O)c1cc(C#N)cc(C)c1NC(=O)c1cc(Cn2nnc(C(C)(C)C)n2)nn1-c1ncccc1Cl [Example 101] | ≥ 80 | ≥ 80 | 2.62 |  |  |  | 
CNC(=O)c1cc(I)cc(C)c1NC(=O)c1cc(Cn2nnc(C(F)(F)C(F)(F)F)n2)nn1-c1ncccc1Cl [Example 140] | ≥ 80 | ≥ 80 | 3.64 |  |  |  | 
Cc1cc(Cl)cc(C(=O)NC(C)(C)C)c1NC(=O)c1cc(Cn2nnc(C(F)F)n2)nn1-c1ncccc1Cl [Example 258] | ≥ 80 | ≥ 80 | 3.32 |  |  |  | 
CC(C)NC(=O)c1cc(Cl)cc(Cl)c1NC(=O)c1cc(Cn2nnnc2C(F)(F)C(F)(F)F)nn1-c1ncccc1Cl [Example 205] | ≥ 80 | ≥ 80 | 3.52 |  |  |  | 
Cc1cc(Cl)cc(C(=O)NC(C)C2CC2)c1NC(=O)c1cc(Cn2nnc(C(F)(F)C(F)(F)F)n2)nn1-c1ncccc1Cl (stereo not drawn) [Example 126] | ≥ 80 | ≥ 80 | 4.25 |  |  |  | 
CCNC(=O)c1cc(Br)cc(C)c1NC(=O)c1cc(Cn2nnc(C(F)(F)F)n2)nn1-c1ncccc1C(F)(F)F [Example 244] | ≥ 80 |  |  | ≥ 80 |  | 3.52 | 
Cc1cc(F)cc(C(=O)NC(C)C2CC2)c1NC(=O)c1cc(Cn2nnc(C(F)(F)C(F)(F)F)n2)nn1-c1ncccc1Cl (stereo not drawn) [Example 148] | ≥ 80 | ≥ 80 | 3.8 |  |  |  | 
Cc1cc(C#N)cc(C(=O)NC2CCCCC2)c1NC(=O)c1cc(Cn2nnc(C(F)(F)F)n2)nn1-c1ncccc1Cl [Example 400] | ≥ 80 | ≥ 80 | 3.63 |  |  |  | 
Cc1cc(C#N)cc(C(=O)NC(C)(C)C)c1NC(=O)c1cc(Cn2nnc(C(C)(C)C)n2)nn1-c1ncccc1Cl [Example 100] | ≥ 80 | ≥ 80 | 3.44 |  |  |  | 
Cc1cc(C#N)cc(C(=O)NC(C)(C)C)c1NC(=O)c1cc(C(C)n2nnc(C(F)(F)F)n2)nn1-c1ncccc1Cl (stereo not drawn) [Example 436] | ≥ 80 | ≥ 80 | 3.7 |  |  |  | 
Cc1cc(C#N)cc(C(=O)NC(C#N)C2CC2)c1NC(=O)c1cc(Cn2nnc(C(F)(F)F)n2)nn1-c1ncccc1Cl (stereo not drawn) [Example 321] | ≥ 80 | ≥ 80 | 3.05 |  |  |  | 
Cc1cc(C#N)cc(C(=O)NC(C)(C)C)c1NC(=O)c1cc(Cn2nnc(C(F)(C(F)(F)F)C(F)(F)F)n2)nn1-c1ncccc1Cl [Example 371] | ≥ 80 |  |  | ≥ 80 |  | 4.1 | 
Cc1cc(F)cc(C(=O)NC(C)C)c1NC(=O)c1cc(Cn2nnc(C(F)(F)C(F)(F)F)n2)nn1-c1ncccc1Cl [Example 149] | ≥ 80 | ≥ 80 | 3.59 |  |  |  | 
Cc1cc(I)cc(C(=O)NC(C)C)c1NC(=O)c1cc(Cn2nnc(C(F)(F)F)n2)nn1-c1ncccc1Br [Example 413] | ≥ 80 |  |  | ≥ 80 | 3.77 |  | 
Cc1cc(C#N)cc(C(=O)NCc2ccoc2)c1NC(=O)c1cc(Cn2nnc(C(F)(F)F)n2)nn1-c1ncccc1Cl [Example 99] | ≥ 80 | ≥ 80 | 3.09 |  |  |  | 
